Test results reported in US20220322671A1, “METHODS TO REDUCE CONTAMINATION, BIOFILM AND FOULING FROM WATER SYSTEMS, SURFACES, AND PRODUCTS” (Aequor, Inc., priority 2019, published 2022).
Several values for one entry are separate records, joined by “and”; a condition that tells them apart may be missing. Equal values may be shown once. Read-outs that look alike come from different tables or passages of the source.

What was measured:
[1] = test system: C. marina ATCC 25374; test: Minimum bactericidal concentration, C. marina; type: cell-based
[2] = test system: C. marina ATCC 25374; test: MIC broth microdilution, C. marina; type: cell-based
[3] = test system: C. marina ATCC 25374 biofilm; test: MBEC biofilm eradication assay, C. marina; type: cell-based
[4] = test system: MRSA ATCC 33591; test: MIC broth microdilution, MRSA; type: cell-based, S. aureus Methicillin-Resistant
[5] = test system: A. niger ATCC 16888; test: MIC broth microdilution, A. niger; type: cell-based
[6] = test system: L. fermentum (ATCC 9338); test: MIC broth microdilution, L. fermentum; type: cell-based, Lactobacillus fermentum
[7] = test system: E. coli ATCC 11775; test: MIC broth microdilution, E. coli; type: cell-based
[8] = test system: P. aeruginosa NR-31041; test: MIC broth microdilution, P. aeruginosa; type: cell-based, Pseudomonas aeruginosa
[9] = test system: Heterochlorella luteoviridis cf. (SAG 2203); test: Algae growth inhibition; type: cell-based; conditions: 1% concentration, 14 days, absorbance 750 nm
Procedure: The molecules (SDBS, SDS, SEHS, and DBSA) were added to the growth culture medium of algae Heterochlorella luteoviridis cf. (SAG 2203.) Algae was grown in 50 ml tubes at 28 °C for 14 days. Absorbance (optical density) was measured at 750 nm in a spectrophotometer and used to determine concentration to inhibit the growth of algae.

[10] = test system: S. aureus ATCC 12600; test: MIC broth microdilution, S. aureus; type: cell-based
[11] = C. marina ATCC 25374, materials in water
[12] = 24- and 48-hour biofilm, 30 min exposure

## CCCCOP(=O)(O)OCCCC [DBP, dibutyl phosphate]
[1]
  % Reduction Compared to Control: 99.9999%
  CFU/ml: <1E+02^1 CFU/ml
  Minimum Bactericidal Concentration (% v/v) CLSI M26-A Method: 0.5000 % v/v
[2]
  Growth of C. marina (in words): inhibited growth
  Minimum Inhibitory Concentration (% v/v) M07-09 Method: 0.1250 % v/v
[3]
  % Reduction Compared to Control: 99.9999% and 99.999%
  Log Reduction: 5.5
  MBEC ASTM E2799-12 Method (% v/v): 0.5 % v/v

## CCCCCCCCCCCCc1ccc(S(=O)(=O)O)cc1 [DBSA, 4-Dodecylbenzenesulfonic acid]
[4]
  Minimum Inhibitory Concentration (MIC) M07-09 Method, MRSA: 0.003 % v/v
[5]; A. niger ATCC 16888
  Minimum Inhibitory Concentration (MIC) M07-09 Method, AN: 0.003 % v/v
[6]
  Minimum Inhibitory Concentration (MIC) (% v/v) M07-09 Method, L. fermentum: 0.0150 % v/v
[7]; E. coli ATCC 11775
  Minimum Inhibitory Concentration (MIC) M07-09 Method, EC: 0.100 % v/v
[1]; C. marina ATCC 25374, killing
  % Reduction Compared to Control: 99.9999%
[1]; [11]
  Minimum Bactericidal Concentration (% v/v) CLSI M26-A Method: 0.0078 % v/v
[1]; C. marina ATCC 25374, detection limit <1E+02
  CFU/ml: <1E+02^1 CFU/ml
[2]; C. marina
  Growth of C. marina (in words): inhibited growth
[2]; [11]
  Minimum Inhibitory Concentration (% v/v) M07-09 Method: < 0.0039 % v/v
[3]; [12]
  MBEC ASTM E2799-12 Method (% v/v): >0.5 % v/v
[3]; 48-hour biofilm, 0.0078 % v/v
  % Biofilm Removal Efficacy: 73.64%
  Log Reduction: 0.58
[3]; 48-hour biofilm, 0.0156 % v/v
  % Biofilm Removal Efficacy: 86.36%
  Log Reduction: 0.87
[3]; 48-hour biofilm, 0.0313 % v/v
  % Biofilm Removal Efficacy: 96.27%
  Log Reduction: 1.43
[3]; 48-hour biofilm, 0.0630 % v/v
  % Biofilm Removal Efficacy: 98.27%
  Log Reduction: 1.76
[3]; 48-hour biofilm, best of the tested concentrations
  Removal of existing 48-hour biofilm (up to): ≤ 99%
[8]; P. aeruginosa NR-31041
  Minimum Inhibitory Concentration (MIC) M07-09 Method, PA: 0.500 % v/v
[9]
  Algae growth: inhibited
[10]; S. aureus ATCC 12600
  Minimum Inhibitory Concentration (MIC) M07-09 Method, SA: 0.003 % v/v

## CCCCC(CC)COS(=O)(=O)[O-].[Na+] (stereo not drawn) [SEHS, sodium 2-ethylhexylsulfate]
[1]
  % Reduction Compared to Control: 99.9999%
  CFU/ml: <1E+02^1 CFU/ml
  Minimum Bactericidal Concentration (% v/v) CLSI M26-A Method: 0.0630 % v/v
[2]
  Growth of C. marina (in words): inhibited growth
  Minimum Inhibitory Concentration (% v/v) M07-09 Method: 0.0313 % v/v
[3]; [12]
  MBEC ASTM E2799-12 Method (% v/v): >0.5 % v/v
[8]
  Minimum Inhibitory Concentration (MIC) M07-09 Method, PA: 0.500 % v/v
[9]
  Algae growth: inhibited
[10]
  Minimum Inhibitory Concentration (MIC) M07-09 Method, SA: 0.280 % v/v

## CCCCCCCCCCCCOS(=O)(=O)[O-].[Na+] [SDS, sodium dodecyl sulfate]
[4]
  Minimum Inhibitory Concentration (MIC) M07-09 Method, MRSA: 0.028 % v/v
[5]
  Minimum Inhibitory Concentration (MIC) M07-09 Method, AN: 0.030 % v/v
[7]
  Minimum Inhibitory Concentration (MIC) M07-09 Method, EC: 0.100 % v/v
[8]
  Minimum Inhibitory Concentration (MIC) M07-09 Method, PA: 0.500 % v/v
[9]
  Algae growth: inhibited
[10]
  Minimum Inhibitory Concentration (MIC) M07-09 Method, SA: 0.028 % v/v
